Results as given in patent US10799442B2, “Compounds useful in the treatment and/or care of the skin, hair, nails, and/or mucous membranes” (LUBRIZOL ADVANCED MATERIALS, INC., priority 2015, dated 2020).

What was measured:
[1] = tested on: Keratin 14; assay: Keratin expression in reconstructed human epidermal tissue (RHE), immunohistochemistry (Keratin 14); type: cell-based; settings: Keratin 14 immunofluorescence, 10 μg/ml, 48 hours
Description: (§1) The human epidermis continuously renews itself by a process of proliferation and differentiation of keratinocytes. Basal epidermal stem cells proliferate and the differentiation process begins above the basal layer, whereby the differentiating keratinocytes slowly move outward from the basal membrane, migrate through the epidermis, and undergo terminal differentiation culminating in fully differentiated dead cells on the surface. The process is a dynamic flux so that surface cells are continuously sloughed and replaced by inner cells differentiating and moving outward. […] To study the ability of the peptides of the invention to recover the basal keratinocyte state, the expression of Keratins 10 and 14 is evaluated by immunohistochemistry in a three-dimensional culture system, Reconstructed Human Epidermal Tissue (RHE), that reproduces in vitro the histological organization of human epidermis in situ. […]
(§2) The expression of Keratins 10 and 14 is evaluated by immunohistochemistry with a specific primary antibody and a fluorescently labelled secondary antibody. […] At the end of the incubation, slides are washed with 0.2% solution of Tween 20 in PBS and are incubated with Alexa Fluor® 488 Goat anti-mouse IgG (H+L) secondary antibody (Invitrogen, green fluorescence emission dye) for 1 hour at room temperature in a dark humidified chamber. […]

[2] = tested on: KLF4; assay: Modulation of stem cell markers in HEKa, Real Time PCR Arrays (KLF4 mRNA); type: cell-based, Human; settings: 48 hours
Protocol: (§3) The candidate compound is evaluated for the modulation of several stem cell markers, those transcription factors regulated by miRNA145 (SOX2, OCT4, KLF4 and MYC). Gene expression profiles are analyzed by Real Time PCR Arrays using a 96-well panel for use with SYBR® Green (BioRad) to detect mRNA expression levels of stem cell markers plus three housekeeping genes, and five controls, in Human Epidermal Keratinocytes from adult (HEKa) (Cascade Biologics).
(§4) HEKa cells are seeded at 6.0×10^5 cells/well in 6-well plates and incubated in culture medium, Epilife with defined Growth Supplement (EDGS) (Cascade Biologics), for 24 hours at 37° C. in a water-saturated atmosphere of 95% air and 5% CO2. After 24 hours, the medium is removed and the cells are incubated with the synthetic peptide DD14024 at several concentrations in a culture medium. Cells are incubated with culture medium only and these provide the basal conditions. After 48 hours of treatment at 37° C. in a CO2 incubator, the cells are lysed directly in the wells, and RNA is purified following the protocol described on the RNeasy Mini kit (Qiagen) according to the manufacturer's protocol. After RNA elution, quantification and analysis of purity of RNA samples are performed with a biophotometer (Eppendorf). For each sample, 2 μg of high quality RNA is retrotranscribed with iScript Advanced (BioRad) in a final volume of 20 μl. The complete reaction mix is incubated in a thermal cycler (Eppendorf) at 42° C. for 30 minutes and the reaction is stopped at 85° C. for 5 minutes (?). Complementary DNA is amplified by qPCR in a real-time PCR thermocycler (BioRad) using SYBR Green Supermix (BioRad) in the 96-well panel for use with SYBR® Green (BioRad). SYBR Green binds to double-stranded DNA molecules and emits fluorescence which is quantified; the fluorescence intensity is proportional to the amount of the product in the PCR reaction. […] Fold change relative to the expression of the sample genes and reference genes is calculated using normalized expression (ΔΔ(Ct)) method using CFX Manager Software (BioRad). […]

[3] = tested on: Keratin 10; assay: Keratin expression in reconstructed human epidermal tissue (RHE), immunohistochemistry (Keratin 10); type: cell-based; settings: Keratin 10 immunofluorescence, 10 μg/ml, 48 hours
Description: as §1, §2

[4] = tested on: OCT4; assay: Modulation of stem cell markers in HEKa, Real Time PCR Arrays (OCT4 mRNA); type: cell-based, Human; settings: 48 hours
Protocol: as §3, §4

[5] = tested on: MYC; assay: Modulation of stem cell markers in HEKa, Real Time PCR Arrays (MYC mRNA); type: cell-based, Human; settings: 48 hours
Protocol: as §3, §4

- Fold induction respect to basal conditions ([2]; 0.001 mg/ml): 1.66 ± 0.18
- Fold induction respect to basal conditions ([2]; 0.005 mg/ml): 2.42 ± 0.50
- Fold induction respect to basal conditions ([2]; 0.01 mg/ml): 1.71 ± 0.40
- Fold induction respect to basal conditions ([4]; 0.001 mg/ml): 1.65 ± 0.13
- Fold induction respect to basal conditions ([4]; 0.005 mg/ml): 1.81 ± 0.28
- Fold induction respect to basal conditions ([4]; 0.01 mg/ml): 1.71 ± 0.29
- Fold induction respect to basal conditions ([5]; 0.001 mg/ml): 0.91 ± 0.05
- Fold induction respect to basal conditions ([5]; 0.005 mg/ml): 0.65 ± 0.08
- Fold induction respect to basal conditions ([5]; 0.01 mg/ml): 0.65 ± 0.07
Substance: Ac-QEMRMQ-OH [DD14024, Ac-Gln-Glu-Met-Arg-Met-Gln-OH]
- Fold induction respect to basal conditions (%) [1]: 425.83%
- Fold induction respect to basal conditions (%) [3]: 28.70%
